Series [1] in a line: Oral bioavailability in C57BL/6 mouse at 5 mg/kg. It counts as ADME, organism-based. Conditions: in vivo.
The subject of series [2] is Staphylococcus aureus. Nature of the series: Antimicrobial activity against Staphylococcus aureus infected in orally dosed mouse bacteremia survival model. Type of series: functional. Conditions: po.
A short description of series [3]: Plasma clearance in Sprague-Dawley rat at 2 mg/kg, iv or 5 mg/kg, po. Type of series: ADME, organism-based.
The nature of series [4]: Volume of distribution at steady state in Sprague-Dawley rat at 2 mg/kg, iv or 5 mg/kg, po. As to conditions: in vivo, read-out: Vdss. It counts as ADME, organism-based.
The nature of series [5]: Volume of distribution at steady state in C57BL/6 mouse at 2 mg/kg, iv or 5 mg/kg, po. It counts as ADME, organism-based. Conditions: in vivo, read-out: Vdss.
The nature of series [6]: Oral bioavailability in Sprague-Dawley rat at 5 mg/kg. As to conditions: in vivo. Type of series: ADME, organism-based.
The test system of the next series is Mus musculus. The series can be described thus: Dose normalized AUC in C57BL/6 mouse at 2 mg/kg, iv or 5 mg/kg, po. Type of series: ADME, organism-based. As to conditions: in vivo.
Series [7] in a line: Plasma clearance in C57BL/6 mouse at 2 mg/kg, iv or 5 mg/kg, po. Type of series: ADME, organism-based.
In another series the test system is Rattus norvegicus. Nature of the series: Dose normalized AUC in Sprague-Dawley rat at 2 mg/kg, iv or 5 mg/kg, po. It counts as ADME, organism-based. Conditions: in vivo.
Series [8] has as its system Staphylococcus aureus. Nature of the series: Antimicrobial activity against Staphylococcus aureus infected in iv dosed mouse bacteremia survival model. Type of series: functional.
Series [9] in a line: Half life in Sprague-Dawley rat at 2 mg/kg, iv or 5 mg/kg, po. Type of series: ADME, organism-based. Conditions: in vivo.
Series [10] is described as follows: Half life in C57BL/6 mouse at 2 mg/kg, iv or 5 mg/kg, po. Type of series: ADME, organism-based. As to conditions: in vivo.

Consider one molecule from ChEMBL document CHEMBL3603744, “Structure activity relationship of C-2 ether substituted 1,5-naphthyridine analogs of oxabicyclooctane-linked novel bacterial topoisomerase inhibitors as broad-spectrum antibacterial agents (Part-5)” (Bioorg Med Chem Lett, 2015).

For `Cl.O=C1COc2ccc(CNC34CCC(CCc5c(F)cnc6ccc(OCCCO)nc56)(CC3)OC4)nc2N1`, the results for the bioavailability in [1] and in [6] were 16% and 49%, respectively. Also, the median effective dose (ED50) (usually the midpoint of the dose-response relation) worked out at 15 mg/kg in the series on Staphylococcus aureus [2] and 5.9 mg/kg in the series on Staphylococcus aureus [8]. The clearance in series [3] came out at 33.2 mL/min/kg; in [7] it was 38.7 mL/min/kg. In addition, the values for the Vd in series [4] and in [5] were 0.84 L/kg and 1.46 L/kg, respectively. For the same molecule, the figures for the AUC/dose with Mus musculus and with Rattus norvegicus were 1.6 µM·h/mg/kg and 1.9 µM·h/mg/kg, respectively. Further, the half-life (usually how long it takes for the measured level to halve) in series [9] is 0.58 h; in series [10], 1.5 h.
